Laboratory results published in patent US20160115540A1, “PRODRUGS AND DRUGS” (Biogen MA Inc., priority 2013, published 2016).
Counter-ions that a name gives are not always drawn.

Test system: kidney
Experiment: Transcriptional profiling on Affymetrix GeneChips, single dose, naïve mice: kidney
Format: in vivo, C57BL/6 mice
Conditions: kidney; 100MMF-vs-Veh, 12 h
Procedure: Treated mice were sacrificed at 2, 7, or 12 hours. Tissues (liver, spleen, kidney, jejunum, cortex, hippocampus, striatum and whole blood) were collected and analyzed by transcriptional profiling on mouse Affymetrix GeneChips.
Tissues (liver, spleen, kidney, jejunum, cortex, hippocampus, striatum and whole blood) were collected and analyzed by transcriptional profiling on mouse Affymetrix GeneChips.
Animals were exposed to CO2 and whole blood collected via cardiac puncture. Two 100 μl aliquots of whole blood were collected in 1.5 mL microcentrifuge tubes and snap frozen in liquid nitrogen. Peripheral (liver, spleen, kidney and jejunum) and CNS brain (cerebellum, hippocampus, striatum and cortex) tissues were harvested and snap frozen in liquid nitrogen, with special care taken to collect tissues of similar size and from the same location. All samples were stored at −80° C. until RNA extraction was conducted.
For RNA preparation, frozen tissues were placed in 2 mL RNAse-free 96-well blocks with 1.5 mL QIAzol Lysis Reagent (QIAgen) and a 3.2 mm stainless steel bead (BioSpec Products, Bartlesville, Okla.). Tissues were disrupted for four cycles of 45 seconds in a Mini-Beadbeater (Biospec Products). RNA was extracted in chloroform and the aqueous phase was mixed with an equal volume of 70% ethanol. Extracted RNA was applied to RNeasy 96 plates and purified by the spin method according to the manufacturer's protocol (RNeasy 96 Universal Tissue Protocol, QIAgen, Hilden Germany).
Automated sample amplifications and biotin labelings were carried out using the NuGEN Ovation RNA Amplification system V2 (Cat #3100), Ovation WB reagent (Cat #1300) and Encore Biotin module (Cat #4200) (NuGEN Technologies, Inc, San Carlos, Calif.) according to manufacturer's recommendations using an Arrayplex automated liquid handler (Beckman Coulter, Indianapolis, Ind.). Two micrograms of biotin labeled sscDNA probe were hybridized to Affymetrix GeneChip Affymetrix HT_MG-430_PM plate arrays with modified conditions as described in Allaire et al. Washing and staining of the hybridized arrays were completed as described in the GeneChip Expression analysis technical manual for HT plate arrays using the Genechip® Array Station (Affymetrix, Santa Clara, Calif.) with modifications as described in Allaire et al. The processed GeneChip® plate arrays were scanned using GeneTitan scanner (Affymetrix, Santa Clara, Calif.).
Affymetrix scans were subject to quality control (QC) measures. These tests included a visual inspection of the distribution of raw signal intensities and an assessment of RNA degradation, relative log expression (RLE), and normalized unsealed standard error (NUSE). All sample scans that passed these QC metrics were included in the analysis.
All CEL files were subjected to GC-content-based Robust Multi-array Average (GCRMA) normalization (version 2.20.0) (Irizarry R A, et al. Nucleic Acids Res 2003; 31:e15; Li C, et al. Genome Biol 2001; 2:[…]0032). Expression levels were log (base 2) transformed.
All calculations and analyses were carried out using R (version 2.11.1) and Bioconductor computational tools (Gentleman R. Springer Science+Business Media 2005).

COC(=O)/C=C/C(=O)O [MMF, monomethyl fumarate]
FC 9130221J18Rik (1446368_PM_at): −1.53 | FC AB099516 /// Higd1c (1447356_PM_at): −1.57 | FC Abcc3 (1428988_PM_at): 1.64 | FC Abcc4 1443870_PM_at: 2.07 | FC Acot1 (1449065_PM_at): 1.59 | FC Acsm2 (1427224_PM_at): −1.52 | FC Agps 1434919_PM_at: −1.80 | FC Akr1b8 (1448894_PM_at): 1.68 | FC Akr1c19 (1455454_PM_at): 2.00 | FC Alas1 1424126_PM_at: 2.02 | FC Alas1 (1455282_PM_x_at): 1.70 | FC Alcam 1426300_PM_at: 2.83 | FC Alcam 1426301_PM_at: 2.09 | FC Alcam 1437467_PM_at: 1.93 | FC Arg2 (1438841_PM_s_at): 2.63 | FC Arhgap26 (1440688_PM_at): −1.57 | FC Asns 1433966_PM_x_at: 2.49 | FC Asns 1451095_PM_at: 2.87 | FC Atp13a3 1442145_PM_at: 1.62 | FC B4galt5 (1433617_PM_s_at): −1.51 | FC BC060267 (1441979_PM_at): 1.74 | FC Bcat1 1430111_PM_a_at: −2.07 | FC Bcat1 1450871_PM_a_at: −2.20 | FC Bcat1 1455699_PM_at: −2.27 | FC Blvrb (1451386_PM_at): 2.23 | FC C3 (1423954_PM_at): 2.34 | FC C8a (1428012_PM_at): −1.51 | FC Cbr1 (1460196_PM_at): 2.10 | FC Cbr3 (1427912_PM_at): 7.02 | FC Cdkn1a (1424638_PM_at): 2.73 | FC Chrdl1 (1456722_PM_at): −1.55 | FC Cldn1 (1437932_PM_a_at): 1.57 | FC D16Ertd778e 1445089_PM_at: −2.25 | FC Dcdc2a (1459661_PM_at): 1.69 | FC Dnase2a (1430135_PM_at): 2.15 | FC Dpys (1436291_PM_a_at): 1.51 | FC Endou 1449937_PM_at: 1.89 | FC Ep400 (1449610_PM_at): −1.67 | FC Esr1 1460591_PM_at: −1.54 | FC Esr1 (1435663_PM_at): −1.75 | FC Fga (1424279_PM_at): 1.79 | FC Fgf1 1450869_PM_at: −1.58 | FC G6pdx (1448354_PM_at): 1.70 | FC Gclc (1455959_PM_s_at): 1.64 | FC Gjb1 1448766_PM_at: 1.81 | FC Gjb1 (1448767_PM_s_at): 1.67 | FC Gm5101 (1442588_PM_at): −1.50 | FC Gpr135 1441944_PM_s_at: 1.59 | FC Gpr135 1459274_PM_at: 1.65 | FC Gpt (1426502_PM_s_at): 1.51 | FC Gstm1 (1425627_PM_x_at): 1.56 | FC Gstm1 (1448330_PM_at): 1.54 | FC Gstm4 (1424835_PM_at): 1.70 | FC Gstp1 (1449575_PM_a_at): 1.54 | FC Havcr1 1434716_PM_at: 4.79 | FC Hfe 1450702_PM_at: 1.67 | FC Hist1h1c (1438204_PM_at): 1.82 | FC Hist1h2be 1440330_PM_at: 2.92 | FC Hist1h2be (1445565_PM_at): 2.48 | FC Ikbkg 1435646_PM_at: 1.76 | FC Ikbkg 1454690_PM_at: 1.54 | FC Kif20b 1439695_PM_a_at: −2.85 | FC Klk1b21 (1451607_PM_at): 1.57 | FC Lcp1 1448160_PM_at: 1.54 | FC Lpar2 1442291_PM_at: 1.93 | FC Lrat (1444487_PM_at): 1.72 | FC Maf (1435828_PM_at): 1.53 | FC Maf (1447849_PM_s_at): 1.54 | FC Myo5a (1431320_PM_a_at): −2.35 | FC Myo5a (1436051_PM_at): −2.04 | FC Nfia (1446742_PM_at): −1.74 | FC Nqo1 (1423627_PM_at): 2.11 | FC Pank1 1457110_PM_at: −1.73 | FC Pank2 1452733_PM_at: −1.97 | FC Pgd 1423706_PM_a_at: 2.27 | FC Pgd 1438627_PM_x_at: 1.83 | FC Pgd (1436771_PM_x_at): 2.03 | FC Pgd (1437380_PM_x_at): 2.05 | FC Phlda3 (1449002_PM_at): 1.81 | FC Pigl (1440965_PM_at): 1.52 | FC Pir (1429001_PM_at): 3.08 | FC Ptprr (1426047_PM_a_at): 1.69 | FC Rcor3 (1428343_PM_at): −1.51 | FC Reep6 (1430128_PM_a_at): 1.51 | FC Rnf24 1436101_PM_at: −2.01 | FC Slc5a3 (1440227_PM_at): −1.50 | FC Slc8a1 (1437675_PM_at): −1.86 | FC Slc9a8 1454865_PM_at: −2.40 | FC Slc22a14 (1440058_PM_at): 1.54 | FC Slc39a8 (1448482_PM_at): −1.55 | FC Slc48a1 (1450409_PM_a_at): 1.53 | FC Slco2a1 (1444242_PM_at): 1.63 | FC Slco4c1 (1437870_PM_at): −1.69 | FC Slco4c1 (1460616_PM_at): −2.08 | FC Smarca2 (1452333_PM_at): −1.60 | FC Srxn1 (1425351_PM_at): 1.89 | FC Srxn1 (1426875_PM_s_at): 1.91 | FC Srxn1 (1451680_PM_at): 2.09 | FC Tmc5 (1452934_PM_at): 1.91 | FC Tmie (1443964_PM_at): 1.65 | FC Trim16 (1460629_PM_at): 1.51 | FC Txnrd1 (1424487_PM_x_at): 1.74 | FC Vps8 (1434050_PM_at): −1.84 | FC Vps8 (1454810_PM_s_at): −1.55
